The target in data set [1] is T1, human α1B-adrenoceptor (ADRA1B) expressed in HEK293 cells (Homo sapiens, UniProt P35368).
T1 construct: eGFP; host or cells: HEK293 (transient, Lipofectamine 2000)
T1 sequence (P35368 1-520): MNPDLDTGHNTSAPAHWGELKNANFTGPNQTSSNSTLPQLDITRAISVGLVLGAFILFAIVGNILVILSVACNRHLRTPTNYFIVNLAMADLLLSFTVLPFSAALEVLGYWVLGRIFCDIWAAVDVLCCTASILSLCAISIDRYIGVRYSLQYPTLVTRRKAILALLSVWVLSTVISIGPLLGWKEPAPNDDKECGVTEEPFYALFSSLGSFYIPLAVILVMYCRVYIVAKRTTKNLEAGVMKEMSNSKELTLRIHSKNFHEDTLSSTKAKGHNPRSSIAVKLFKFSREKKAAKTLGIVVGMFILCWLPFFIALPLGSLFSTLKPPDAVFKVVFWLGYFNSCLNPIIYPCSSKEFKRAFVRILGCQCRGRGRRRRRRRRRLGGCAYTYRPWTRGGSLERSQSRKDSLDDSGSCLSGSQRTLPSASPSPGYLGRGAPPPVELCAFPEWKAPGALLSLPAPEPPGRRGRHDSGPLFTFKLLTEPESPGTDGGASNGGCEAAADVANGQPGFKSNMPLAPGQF
Kind of data set: Dual-luciferase CRE reporter HTS assay, inhibition of PE-induced CRE activation (RIP). The class given is cell-based. The note with it: relative inhibitory potency = (RLU PE alone − RLU PE+antagonist)/RLU PE alone. How it is done: (§1) Furthermore, the relative inhibitory potency (RIP) could be used to improve the readability of the results. Which was determined relative to that of PE-induced group ([…]), and calculated using the following formula [15]: RIP = (RLUPE alone − RLUPE+antagonist)/RLUPE alone(1)
(§2) HEK293 cells were plated at a density of 10^5 […] in 96-well plates in 100 μL of DMEM basic medium containing 10% fetal bovine serum, 100 U/mL penicillin, and 0.1 mg/mL streptomycin. After overnight incubation, human ADRA1-expression vectors, namely, ADRA1A, ADRA1B, and ADRA1D, were co-transfected with reporter vectors (CRE, SRE, AP1, NFAT, and NF-кB) and pGL4.74 [hRluc/TK] (included as a control for transfection efficiency) using Lipofectamine 2000 transfection reagent (Invitrogen Life Technologies, Carlsbad, CA, USA). The medium was removed after 4 h and replaced with high-glucose DMEM for 18 h. Cells were then treated with agonists (at concentrations of 0.01–20 μM) and incubated for 8 h.
(§3) Firefly and Renilla luciferase activities, which are indicated as RLUs, were determined using Dual-Glo luciferase assay kits (Promega) according to the manufacturer’s instructions. RLUs were measured using a luminometer (GloMaxTM 96-Microplate Luminometer, Promega) and are reported as the mean ± SEM of three individual experiments. For agonists, fold of induction = RLUinduced/RLUuninduced. For antagonists, % of control = 100 × RLU (agonist + antagonist)/RLU(agonist alone). All RLUs were normalized against firefly RLUs/Renilla RLUs. […] The pKB of the antagonist was calculated by plotting log (dose ratio–1) against the antagonist dose (μM) and subjecting the data to Schild regression, where the intercept of the x-axis represents the pKB.

The target of data set [2] is T2, human α1D-adrenoceptor (ADRA1D) expressed in HEK293 cells (Homo sapiens, UniProt P25100).
T2 construct: eGFP; host or cells: HEK293 (transient, Lipofectamine 2000)
T2 sequence (P25100 1-572): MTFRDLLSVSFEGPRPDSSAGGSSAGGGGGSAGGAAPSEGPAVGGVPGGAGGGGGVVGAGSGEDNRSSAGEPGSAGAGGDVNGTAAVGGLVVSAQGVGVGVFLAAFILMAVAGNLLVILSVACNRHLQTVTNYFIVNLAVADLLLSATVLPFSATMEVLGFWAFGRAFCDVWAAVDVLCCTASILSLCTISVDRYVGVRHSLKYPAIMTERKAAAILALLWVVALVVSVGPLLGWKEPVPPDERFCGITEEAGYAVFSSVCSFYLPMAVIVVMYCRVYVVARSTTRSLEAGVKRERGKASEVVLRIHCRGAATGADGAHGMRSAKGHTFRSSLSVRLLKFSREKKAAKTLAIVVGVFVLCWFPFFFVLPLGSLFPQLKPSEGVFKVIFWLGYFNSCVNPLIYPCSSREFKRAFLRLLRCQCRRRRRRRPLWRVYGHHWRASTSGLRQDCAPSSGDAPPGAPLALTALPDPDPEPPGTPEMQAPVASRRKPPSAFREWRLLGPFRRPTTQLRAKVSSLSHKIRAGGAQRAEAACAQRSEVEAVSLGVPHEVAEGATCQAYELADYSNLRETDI
Described as above. Format: cell-based. The conditions noted are these: relative inhibitory potency = (RLU PE alone − RLU PE+antagonist)/RLU PE alone. The method, then: as §1, §2, §3

The target in data set [3] is T3, human α1A-adrenoceptor (ADRA1A) expressed in HEK293 cells (Homo sapiens, UniProt P35348).
T3 construct: eGFP; host or cells: HEK293 (transient, Lipofectamine 2000)
T3 sequence (P35348 1-466): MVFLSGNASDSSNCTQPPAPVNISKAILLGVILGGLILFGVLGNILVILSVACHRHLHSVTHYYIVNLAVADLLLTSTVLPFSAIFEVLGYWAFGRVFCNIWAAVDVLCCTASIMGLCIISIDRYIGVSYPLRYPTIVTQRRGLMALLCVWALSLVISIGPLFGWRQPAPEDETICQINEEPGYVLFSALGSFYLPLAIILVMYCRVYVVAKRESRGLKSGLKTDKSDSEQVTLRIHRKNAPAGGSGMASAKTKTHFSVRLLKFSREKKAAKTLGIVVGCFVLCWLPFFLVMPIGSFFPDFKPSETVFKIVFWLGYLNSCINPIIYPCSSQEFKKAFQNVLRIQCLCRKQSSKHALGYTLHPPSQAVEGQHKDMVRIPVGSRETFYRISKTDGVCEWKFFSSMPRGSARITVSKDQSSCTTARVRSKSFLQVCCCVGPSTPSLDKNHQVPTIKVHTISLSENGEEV
The description is as above. The class given is cell-based. The note with it: relative inhibitory potency = (RLU PE alone − RLU PE+antagonist)/RLU PE alone. The method, then:
as §1, §2, §3

Data set [4] has as its system DU145 human prostate cancer cell line. Kind of data set: CCK-8 assay, cytotoxic / anti-proliferative activity. Format: cell-based. The conditions noted are these: DU-145, CCK-8, 24 h exposure, mean ± SD, three experiments. The method, then:
(§4) Cell proliferation was measured with the Cell Counting Kit-8 (CCK-8) assay kit (Dojindo Corp., Kumamoto, Japan). Cells were harvested during logarithmic growth phase and seeded in 96-well plates at a density of 1 × 10^5 cells/mL, and cultured at 37 °C in a humidified incubator (5% CO2) for 24 h, followed by exposure to various concentrations of compounds tested for 24 h. Subsequently 10 μL of CCK-8 (Dojindo) was added to each well, the cells were then incubated for an additional 1 h at 37 °C to convert WST-8 into formazan. Cell growth inhibition was determined by measuring the absorbance (Abs) at λ = 450 nm using amicroplate reader. Three independent experiments were performed. Cell growth inhibition was calculated according to the following equation: Growth inhibition = (1 − OD of treated cells/OD of control cells) × 100% (2)
(§5) The half maximal inhibitory concentrations (IC50) were obtained from liner regression analysis of the concentration-response curves plotted for each tested compound.
Background: Tetrazolium dyes change colour on reduction, which living cells bring about.

The subject of data set [5] is PC-3 human prostate cancer cell line. The description is as above. The class given is cell-based. The conditions noted are these: CCK-8, 24 h exposure, mean ± SD, three experiments. The method, then:
as §4, §5

Data set [6] deals with LNCaP human prostate cancer cell line. The description is as above. The class given is cell-based. The conditions noted are these: CCK-8, 24 h exposure, mean ± SD, three experiments. How it is done: as §4, §5
In data set [7] the test system is RWPE-1 human prostate epithelial cell line. The description is as above. The class given is cell-based. The conditions noted are these: for cytotoxic effects on human epithelial prostate normal cells RWPE-1: CCK-8; for IC50: Homo sapiens, RWPE-1, CCK-8, 24 h exposure, mean ± SD, three experiments. How it is done:
as §4, §5

The target in data set [8] is T1, human α1B-adrenoceptor (ADRA1B) expressed in HEK293 cells. Kind of data set: Dual-luciferase CRE reporter HTS assay, agonist mode. Format: cell-based. The note with it: HEK293, 8 h, read-out: EC50 α1B (agonistic activity). The method, then: as §2, §3
Data set [9] addresses T2, human α1D-adrenoceptor (ADRA1D) expressed in HEK293 cells. The data set is described as above. The class given is cell-based. The note with it: HEK293, 8 h, read-out: EC50 α1D (agonistic activity). How it is done: as §2, §3
The subject of data set [10] is α1-ARs (α1A, α1B, and α1D). Kind of data set: Dual-luciferase CRE reporter HTS assay, agonist mode, summary over subtypes. The class given is cell-based, human. The note with it: for EC50: range over the three subtypes and both compounds, read-out: EC50, agonistic activities on α1-ARs (α1A, α1B, and α1D). The method, then: as §2, §3
Data set [11] relates to human prostate cancer cell lines (PC-3, LNCaP and DU145). Kind of data set: CCK-8 assay, summary over tested cancer cell lines. Format: cell-based. The conditions noted are these: range over PC-3, LNCaP, DU145 and both compounds, read-out: IC50, cytotoxic activities against tested cancer cell lines. The method, then: as §4, §5
Data set [12] deals with T3, human α1A-adrenoceptor (ADRA1A) expressed in HEK293 cells. Kind of data set: Dual-luciferase CRE reporter HTS assay, agonist mode. The class given is cell-based. The conditions noted are these: HEK293, 8 h, read-out: EC50 α1A (agonistic activity). The method, then: as §2, §3
The next data set deals with α1-ARs (α1A, α1B, α1D). The conditions noted are these: α1-AR subtype selectivity, cited from earlier work.

With `COc1ccccc1N1CCN(CCCNc2c(C)c(=O)n(C)c(=O)n2C)CC1` [5-Methylurapidil, 5-methylurapidil], in data set [1], the “RIP Values (Mean ± S.E.M, n = 4) α1B” value is 0.63 ± 0.07. The “RIP Values (Mean ± S.E.M, n = 4) α1D” value in data set [2] turned out to be 0.51 ± 0.09. In addition, in [3], the “RIP Values (Mean ± S.E.M, n = 4) α1A” value came to 0.83 ± 0.03.

By IC50 is commonly meant the concentration at which inhibition is half-maximal. What is called EC50 is the midpoint of the concentration-response curve. Consider `Cc1ccc(S(=O)(=O)OCCc2ccc(CN3C(=O)c4ccccc4C3=O)cc2)cc1` [CHE3], for which the IC50 in [4] is 11.1 ± 1.07 µM; in data set [5], 91.3 ± 1.13 µM; in [6] it was 47 ± 1.24 µM; in data set [7] it was 30.7 ± 0.66 µM; in data set [11], 11.1 to 91.3 µM. In data set [7], the “cytotoxic effects on human epithelial prostate normal cells RWPE-1” value was “exhibited cytotoxic effects”. Moreover, the figures for the EC50 in data set [8], in data set [9] and in [10] were 42.7 µM, 47.2 µM and 25.3 to 47.2 µM, respectively. The “subtype selectivity in the HTS assay” value in data set [10] (α1A, α1B, α1D) is given as “did not display significant subtype selectivity”.

Turning to `Cc1ccc(S(=O)(=O)OCCc2ccc(COc3ccc4c(c3)OCO4)cc2)cc1` [CHK3], the IC50 was 39.1 ± 0.81 µM in data set [4]; 55.3 ± 1.09 µM in data set [5]; 51.5 ± 1.08 µM in data set [6]; 31.7 ± 0.61 µM in data set [7]; 11.1 to 91.3 µM in [11]. Further, the “cytotoxic effects on human epithelial prostate normal cells RWPE-1” value in data set [7] is “exhibited cytotoxic effects”. The EC50 is 35.2 µM in data set [8], 34.3 µM in data set [9], 42.5 µM in data set [12] and 25.3 to 47.2 µM in data set [10].

As to `COc1cc2nc(N3CCN(C(=O)OCc4ccccc4)[C@H](C(=O)NC(C)(C)C)C3)nc(N)c2cc1OC` [Compound L-765314], in data set [1], the “RIP Values (Mean ± S.E.M, n = 4) α1B” value is listed as 0.86 ± 0.01. Also, in [2], the “RIP Values (Mean ± S.E.M, n = 4) α1D” value is 0.30 ± 0.11. Further, the “RIP Values (Mean ± S.E.M, n = 4) α1A” value in [3] is on record as 0.53 ± 0.08.

`COc1ccccc1N1CCN(CC(O)COc2cccc3ccccc23)CC1` (stereo not drawn) [Naftopidil, naftopidil, reference compound]: the half-maximal inhibitory concentration (IC50) in data set [4] stood at 34.58 ± 0.31 µM; in [5], 42.1 ± 0.79 µM; in data set [6] it was 22.4 ± 0.61 µM; in [7], 52 ± 1.51 µM. Further, in data set [1], the “RIP Values (Mean ± S.E.M, n = 4) α1B” value is reported as 0.77 ± 0.02. The “RIP Values (Mean ± S.E.M, n = 4) α1D” value in [2] came to 0.93 ± 0.01. In [3], the “RIP Values (Mean ± S.E.M, n = 4) α1A” value is listed as 0.79 ± 0.09.

For `CNC[C@H](O)c1cccc(O)c1` [Phenylephrine, phenylephrine, reference compound], the 50% effective concentration (EC50) in data set [9] amounted to 2.68 µM.

In the case of `COc1cc2nc(N3CCN(C(=O)C4CCCO4)CC3)nc(N)c2cc1OC` (stereo not drawn) [Terazosin, terazosin], the “RIP Values (Mean ± S.E.M, n = 4) α1B” value in data set [1] is reported as 0.91 ± 0.02. The “RIP Values (Mean ± S.E.M, n = 4) α1D” value in data set [2] came out at 0.49 ± 0.02. Further, the “RIP Values (Mean ± S.E.M, n = 4) α1A” value in data set [3] is reported as 0.89 ± 0.05. Also, in the data set on α1-ARs (α1A, α1B, α1D), the “Reported Selectivity” value was “Nonselective [17]”. In addition, the “Reported Selectivity (Table S1)” value in the data set with α1-ARs (α1A, α1B, α1D) (ref 2 (supplement)) is recorded as “Nonselective”.
